For series [1] the following is noted: atmospheric pressure, 20° C.; cited from earlier work.
The conditions of series [2]: solution has the proper amount of sodium polyphosphate.

These results are taken from patent US9788549B2, “Broad spectrum disinfectant” (DI[…] LLC, priority 2014, dated 2017).

SMILES strings stand for the structures.

Consider `[O][Cl+][O-]` [Chlorine dioxide], for which the solubility in water entry in series [1] was “approximately 70 g/l”. Besides, in series [2], the “stability of ClO2 in solution” value was “remain stable for years”.
